Laboratory results reported in patent US8685992B2, “Histone deacetylase inhibitors based simultaneously on trisubstituted 1H-pyrroles and aromatic and heteroaromatic spacers” (Universidad del País Vasco, priority 2009, dated 2014).

Assays:
MCF-7 = experiment: Cancer cell growth inhibition, MCF-7; format: cell-based, human; details: MCF-7, Breast Cancer, 72 h treatment
Experimental: (§1) Cell culture-based assays were used to evaluate the ability of compounds of the invention to inhibit cancer cell growth inhibition.
(§2) Cells were obtained from the American Type Culture Collection (ATCC). Cells were cultured at 37° C. with 5% CO2 in the appropriate growth medium (see table below), and harvested respectively during the logarithmic growth period and counted with hemocytometer. The cell viability was over 98% by trypan blue exclusion. Cell concentrations were adjusted between 5×10^4 and 2×10^5 cells/ml with respective medium.
(§3) Stock solutions of test compounds and positive drugs Doxorubicin (Zhejiang, Haizheng, China), Paclitaxel (Beijing, Xiehe, China), Vincristin (Shenzhen Wanle, China), 5-FU (Tianjin jinyaoanjisuan, China), Irinotecan (Jiangsu Hengrui, China) and Cisplatin Nanjing zhiyao, China) were prepared in dimethyl sulphoxide (DMSO) or PBS at 20 mM.
(§4) All treatments were performed in triplicate. 10 μl drug solution was added to each well and incubated for 72 hours. At the end of the incubation, 20 μl of the freshly prepared MTS/PMS mixture solution was added to each well and incubated for 4 hours at 37° C. in a humidified, 5% CO2 atmosphere. Absorbance was read at 490 nm using SpectraMAX Plus microplate spectrophotometer. […] In order to calculate IC50, a dose-responsive curve was fitted using nonlinear regression model with a sigmoidal dose response.

MDA-MB-231 = experiment: Cancer cell growth inhibition, MDA-MB-231; format: cell-based, human; details: MDA-MB-231, Breast Cancer, 72 h treatment
Experimental: as §1, §2, §3, §4

SK-BR-3 = experiment: Cancer cell growth inhibition, SK-BR-3; format: cell-based, human; details: SK-BR-3, Breast Cancer, 72 h treatment
Experimental: as §1, §2, §3, §4

DU145 = experiment: Cancer cell growth inhibition, DU145; format: cell-based, human; details: DU145, Prostate Cancer, 72 h treatment
Experimental: as §1, §2, §3, §4

LNCaP = experiment: Cancer cell growth inhibition, LNCaP; format: cell-based, human; details: Prostate Cancer, 72 h treatment
Experimental: as §1, §2, §3, §4

PC-3 = experiment: Cancer cell growth inhibition, PC-3; format: cell-based, human; details: PC-3, Prostate Cancer, 72 h treatment
Experimental: as §1, §2, §3, §4

DLD-1 = experiment: Cancer cell growth inhibition, DLD-1; format: cell-based, human; details: DLD-1, Colorectal Cancer, 72 h treatment
Experimental: as §1, §2, §3, §4

HT-29 = experiment: Cancer cell growth inhibition, HT-29; format: cell-based, human; details: HT-29, Colorectal Cancer, 72 h treatment
Experimental: as §1, §2, §3, §4

LoVo = experiment: Cancer cell growth inhibition, LoVo; format: cell-based, human; details: Colorectal Cancer, 72 h treatment
Experimental: as §1, §2, §3, §4

SW480 = experiment: Cancer cell growth inhibition, SW480; format: cell-based, human; details: SW480, Colorectal Cancer, 72 h treatment
Experimental: as §1, §2, §3, §4

SW620 = experiment: Cancer cell growth inhibition, SW620; format: cell-based, human; details: SW620, Colorectal Cancer, 72 h treatment
Experimental: as §1, §2, §3, §4

A549 = experiment: Cancer cell growth inhibition, A549; format: cell-based, human; details: A549, Lung Cancer, 72 h treatment
Experimental: as §1, §2, §3, §4

Calu-6 = experiment: Cancer cell growth inhibition, Calu-6; format: cell-based, human; details: Calu-6, Lung Cancer, 72 h treatment
Experimental: as §1, §2, §3, §4

NCI-H226 = experiment: Cancer cell growth inhibition, NCI-H226; format: cell-based, human; details: NCI-H226, Lung Cancer, 72 h treatment
Experimental: as §1, §2, §3, §4

NCI-H460 = experiment: Cancer cell growth inhibition, NCI-H460; format: cell-based, human; details: NCI-H460, Lung Cancer, 72 h treatment
Experimental: as §1, §2, §3, §4

SK-MES-1 = experiment: Cancer cell growth inhibition, SK-MES-1; format: cell-based, human; details: SK-MES-1, Lung Cancer, 72 h treatment
Experimental: as §1, §2, §3, §4

U87MG = experiment: Cancer cell growth inhibition, U87MG; format: cell-based, human; details: Glioblastoma, 72 h treatment
Experimental: as §1, §2, §3, §4

Bx-PC-3 = experiment: Cancer cell growth inhibition, Bx-PC-3; format: cell-based, human; details: Bx-PC-3, Pancreatic Cancer, 72 h treatment
Experimental: as §1, §2, §3, §4

PANC-1 = experiment: Cancer cell growth inhibition, PANC-1; format: cell-based, human; details: PANC-1, Pancreatic Cancer, 72 h treatment
Experimental: as §1, §2, §3, §4

786-O = experiment: Cancer cell growth inhibition, 786-O; format: cell-based, human; details: Kindney Cancer, 72 h treatment
Experimental: as §1, §2, §3, §4

Hep3B = experiment: Cancer cell growth inhibition, Hep3B; format: cell-based, human; details: Liver Cancer, 72 h treatment
Experimental: as §1, §2, §3, §4

A375 = experiment: Cancer cell growth inhibition, A375; format: cell-based, human; details: A375, Melanoma, 72 h treatment
Experimental: as §1, §2, §3, §4

SK-MEL-5 = experiment: Cancer cell growth inhibition, SK-MEL-5; format: cell-based, human; details: SK-MEL-5, Melanoma, 72 h treatment
Experimental: as §1, §2, §3, §4

CNE2 = experiment: Cancer cell growth inhibition, CNE2; format: cell-based, human; details: CNE2, Nasopharyngeal Cancer, 72 h treatment
Experimental: as §1, §2, §3, §4

MCG803 = experiment: Cancer cell growth inhibition, MCG803; format: cell-based, human; details: MCG803, Gastric Cancer, 72 h treatment
Experimental: as §1, §2, §3, §4

NCI-N87 = experiment: Cancer cell growth inhibition, NCI-N87; format: cell-based, human; details: NCI-N87, Gastric Cancer, 72 h treatment
Experimental: as §1, §2, §3, §4

BGC823 = experiment: Cancer cell growth inhibition, BGC823; format: cell-based, human; details: BGC823, Gastric Cancer, 72 h treatment
Experimental: as §1, §2, §3, §4

SK-OV-3 = experiment: Cancer cell growth inhibition, SK-OV-3; format: cell-based, human; details: SK-OV-3, Ovarian Cancer, 72 h treatment
Experimental: as §1, §2, §3, §4

OVCAR3 = experiment: Cancer cell growth inhibition, OVCAR3; format: cell-based, human; details: OVCAR3, Ovarian Cancer, 72 h treatment
Experimental: as §1, §2, §3, §4

K562 = experiment: Cancer cell growth inhibition, K562; format: cell-based, human; details: K562, CML, 72 h treatment
Experimental: as §1
as §2, with “The cell viability was over 98% by trypan blue exclusion.” left out
as §3, §4

KB = experiment: Cancer cell growth inhibition, KB; format: cell-based, human; details: Oral Cancer, 72 h treatment
Experimental: as §1, §2, §3, §4

RPMI-8226 = experiment: Cancer cell growth inhibition, RPMI-8226; format: cell-based, human; details: RPMI-8226, Orthotopic Multiple Myeloma, 72 h treatment
Experimental: as §1, §2, §3, §4

Human HDAC1 = Human HDAC1 (Homo sapiens (Human), UniProt Q13547); experiment: HDAC1 fluorogenic peptide deacetylation assay; format: biochemical; details: human HDAC1, 50 μM substrate, 30° C., 2 h; read-out: IC50 (nM) of enzyme activity HDAC1
Human HDAC2 = Human HDAC2 (Homo sapiens (Human), UniProt Q92769); experiment: HDAC2 fluorogenic peptide deacetylation assay; format: biochemical; details: human HDAC2, 50 μM substrate, 30° C., 2 h; read-out: IC50 (nM) of enzyme activity HDAC2
Human HDAC3/NcoR2 = Human HDAC3/NcoR2 (Homo sapiens (Human), UniProt O15379); experiment: HDAC3 fluorogenic peptide deacetylation assay; format: biochemical; details: human HDAC3/NcoR2, 50 μM substrate, 30° C., 2 h; read-out: IC50 (nM) of enzyme activity HDAC3
Human HDAC4 = Human HDAC4 (Homo sapiens (Human), UniProt P56524); experiment: HDAC4 fluorogenic peptide deacetylation assay; format: biochemical; details: human HDAC4, 50 μM substrate, 30° C., 2 h; read-out: IC50 (nM) of enzyme activity HDAC4
Human HDAC5 = Human HDAC5 (Homo sapiens (Human), UniProt Q9UQL6); experiment: HDAC5 fluorogenic peptide deacetylation assay; format: biochemical; details: human HDAC5, 50 μM substrate, 30° C., 2 h; read-out: IC50 (nM) of enzyme activity HDAC5
Human HDAC6 = Human HDAC6 (Homo sapiens (Human), UniProt Q9UBN7); experiment: HDAC6 fluorogenic peptide deacetylation assay; format: biochemical; details: human HDAC6, 50 μM substrate, 30° C., 2 h; read-out: IC50 (nM) of enzyme activity HDAC6
Human HDAC7 = Human HDAC7 (Homo sapiens (Human), UniProt Q8WUI4); experiment: HDAC7 fluorogenic peptide deacetylation assay; format: biochemical; details: human HDAC7, 50 μM substrate, 30° C., 2 h; read-out: IC50 (nM) of enzyme activity HDAC7
Human HDAC8 = Human HDAC8 (Homo sapiens (Human), UniProt Q9BY41); experiment: HDAC8 fluorogenic peptide deacetylation assay; format: biochemical; details: human HDAC8, 50 μM substrate, 30° C., 2 h; read-out: IC50 (nM) of enzyme activity HDAC8
Human HDAC9 = Human HDAC9 (Homo sapiens (Human), UniProt Q9UKV0); experiment: HDAC9 fluorogenic peptide deacetylation assay; format: biochemical; details: human HDAC9, 50 μM substrate, 30° C., 2 h; read-out: IC50 (nM) of enzyme activity HDAC9
Human HDAC10 = Human HDAC10 (Homo sapiens (Human), UniProt Q969S8); experiment: HDAC10 fluorogenic peptide deacetylation assay; format: biochemical; details: human HDAC10, 50 μM substrate, 30° C., 2 h; read-out: IC50 (nM) of enzyme activity HDAC10
Human HDAC11 = Human HDAC11 (Homo sapiens (Human), UniProt Q96DB2); experiment: HDAC11 fluorogenic peptide deacetylation assay; format: biochemical; details: human HDAC11, 50 μM substrate, 30° C., 2 h; read-out: IC50 (nM) of enzyme activity HDAC11
[1] = system: Nuclear Extract from HeLa Cells; experiment: HeLa Nuclear Extract HDAC assay; format: biochemical, human; details: 50 μM substrate, 30° C., 2 h, read-out: IC50 (nM) of enzyme activity HeLa

Sequence of Human HDAC10 (Q969S8 1-631): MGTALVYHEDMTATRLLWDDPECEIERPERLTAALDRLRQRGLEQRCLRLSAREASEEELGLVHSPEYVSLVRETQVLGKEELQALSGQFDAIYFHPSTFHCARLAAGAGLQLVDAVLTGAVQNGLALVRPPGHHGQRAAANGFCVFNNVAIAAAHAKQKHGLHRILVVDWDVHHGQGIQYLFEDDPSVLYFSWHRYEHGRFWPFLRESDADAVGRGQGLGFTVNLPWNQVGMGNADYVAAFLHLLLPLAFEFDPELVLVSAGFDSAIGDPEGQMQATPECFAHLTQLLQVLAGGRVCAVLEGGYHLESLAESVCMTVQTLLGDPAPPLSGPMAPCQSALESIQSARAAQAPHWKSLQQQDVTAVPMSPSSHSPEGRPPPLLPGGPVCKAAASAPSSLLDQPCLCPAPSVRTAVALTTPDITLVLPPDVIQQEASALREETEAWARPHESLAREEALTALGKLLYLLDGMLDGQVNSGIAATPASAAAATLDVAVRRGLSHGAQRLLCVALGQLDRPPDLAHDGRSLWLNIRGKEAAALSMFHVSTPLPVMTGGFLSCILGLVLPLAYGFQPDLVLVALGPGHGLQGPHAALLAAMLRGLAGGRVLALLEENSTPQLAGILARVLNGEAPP
Sequence of Human HDAC6 (Q9UBN7 whole entry): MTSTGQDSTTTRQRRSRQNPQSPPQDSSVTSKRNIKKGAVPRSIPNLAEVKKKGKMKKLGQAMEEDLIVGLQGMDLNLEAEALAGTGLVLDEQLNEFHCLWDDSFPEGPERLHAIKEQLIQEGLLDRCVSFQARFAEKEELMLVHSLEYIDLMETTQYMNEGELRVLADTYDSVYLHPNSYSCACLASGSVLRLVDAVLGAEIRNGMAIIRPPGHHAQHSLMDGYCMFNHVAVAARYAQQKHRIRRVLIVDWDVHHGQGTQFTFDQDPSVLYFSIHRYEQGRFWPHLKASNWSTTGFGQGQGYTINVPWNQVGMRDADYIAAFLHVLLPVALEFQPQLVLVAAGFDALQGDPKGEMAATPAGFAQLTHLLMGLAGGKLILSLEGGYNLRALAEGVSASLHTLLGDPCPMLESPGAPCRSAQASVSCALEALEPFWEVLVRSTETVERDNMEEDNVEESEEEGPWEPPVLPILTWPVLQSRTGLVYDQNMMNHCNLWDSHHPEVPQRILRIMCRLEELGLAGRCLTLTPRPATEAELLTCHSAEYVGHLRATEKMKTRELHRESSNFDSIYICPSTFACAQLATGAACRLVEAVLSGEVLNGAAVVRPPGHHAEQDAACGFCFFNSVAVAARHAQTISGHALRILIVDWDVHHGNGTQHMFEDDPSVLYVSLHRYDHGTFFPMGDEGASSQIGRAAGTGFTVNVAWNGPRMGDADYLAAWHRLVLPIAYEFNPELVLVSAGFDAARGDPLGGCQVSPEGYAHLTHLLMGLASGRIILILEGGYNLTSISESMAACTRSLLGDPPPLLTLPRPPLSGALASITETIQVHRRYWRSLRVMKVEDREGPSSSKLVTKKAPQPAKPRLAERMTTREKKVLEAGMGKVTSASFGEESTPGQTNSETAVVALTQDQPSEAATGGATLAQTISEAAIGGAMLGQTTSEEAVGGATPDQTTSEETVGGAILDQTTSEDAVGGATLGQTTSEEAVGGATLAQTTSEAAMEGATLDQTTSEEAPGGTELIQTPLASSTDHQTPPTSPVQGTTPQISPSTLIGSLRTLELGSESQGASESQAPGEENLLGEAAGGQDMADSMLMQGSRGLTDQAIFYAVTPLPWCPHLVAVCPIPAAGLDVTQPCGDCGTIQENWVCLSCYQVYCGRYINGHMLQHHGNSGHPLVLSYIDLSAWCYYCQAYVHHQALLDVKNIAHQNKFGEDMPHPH
Sequence of Human HDAC2 (Q92769 whole entry): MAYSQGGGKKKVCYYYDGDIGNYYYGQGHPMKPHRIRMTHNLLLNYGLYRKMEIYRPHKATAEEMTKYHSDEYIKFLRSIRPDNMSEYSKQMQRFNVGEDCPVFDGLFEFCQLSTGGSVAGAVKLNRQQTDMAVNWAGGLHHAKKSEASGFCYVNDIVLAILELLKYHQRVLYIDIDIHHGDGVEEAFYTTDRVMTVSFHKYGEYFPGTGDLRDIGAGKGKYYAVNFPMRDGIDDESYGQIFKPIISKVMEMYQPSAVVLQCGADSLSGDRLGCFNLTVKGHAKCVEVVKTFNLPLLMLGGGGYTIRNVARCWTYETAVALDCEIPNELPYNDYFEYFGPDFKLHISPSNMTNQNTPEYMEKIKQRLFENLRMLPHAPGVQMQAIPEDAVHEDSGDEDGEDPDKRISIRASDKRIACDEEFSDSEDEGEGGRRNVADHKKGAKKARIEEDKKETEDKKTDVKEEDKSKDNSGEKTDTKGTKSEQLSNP
Sequence of Human HDAC11 (Q96DB2 whole entry): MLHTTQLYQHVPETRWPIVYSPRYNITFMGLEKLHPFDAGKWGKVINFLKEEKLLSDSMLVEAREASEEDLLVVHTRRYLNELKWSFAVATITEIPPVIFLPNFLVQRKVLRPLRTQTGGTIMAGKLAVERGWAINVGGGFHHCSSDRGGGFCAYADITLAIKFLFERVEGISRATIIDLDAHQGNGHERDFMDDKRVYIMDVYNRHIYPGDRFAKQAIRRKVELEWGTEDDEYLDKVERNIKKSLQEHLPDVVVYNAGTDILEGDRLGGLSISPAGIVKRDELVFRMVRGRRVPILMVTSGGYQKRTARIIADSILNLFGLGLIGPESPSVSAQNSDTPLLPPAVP
Sequence of Human HDAC5 (Q9UQL6 other isoform, or with tags, fused parts or gaps): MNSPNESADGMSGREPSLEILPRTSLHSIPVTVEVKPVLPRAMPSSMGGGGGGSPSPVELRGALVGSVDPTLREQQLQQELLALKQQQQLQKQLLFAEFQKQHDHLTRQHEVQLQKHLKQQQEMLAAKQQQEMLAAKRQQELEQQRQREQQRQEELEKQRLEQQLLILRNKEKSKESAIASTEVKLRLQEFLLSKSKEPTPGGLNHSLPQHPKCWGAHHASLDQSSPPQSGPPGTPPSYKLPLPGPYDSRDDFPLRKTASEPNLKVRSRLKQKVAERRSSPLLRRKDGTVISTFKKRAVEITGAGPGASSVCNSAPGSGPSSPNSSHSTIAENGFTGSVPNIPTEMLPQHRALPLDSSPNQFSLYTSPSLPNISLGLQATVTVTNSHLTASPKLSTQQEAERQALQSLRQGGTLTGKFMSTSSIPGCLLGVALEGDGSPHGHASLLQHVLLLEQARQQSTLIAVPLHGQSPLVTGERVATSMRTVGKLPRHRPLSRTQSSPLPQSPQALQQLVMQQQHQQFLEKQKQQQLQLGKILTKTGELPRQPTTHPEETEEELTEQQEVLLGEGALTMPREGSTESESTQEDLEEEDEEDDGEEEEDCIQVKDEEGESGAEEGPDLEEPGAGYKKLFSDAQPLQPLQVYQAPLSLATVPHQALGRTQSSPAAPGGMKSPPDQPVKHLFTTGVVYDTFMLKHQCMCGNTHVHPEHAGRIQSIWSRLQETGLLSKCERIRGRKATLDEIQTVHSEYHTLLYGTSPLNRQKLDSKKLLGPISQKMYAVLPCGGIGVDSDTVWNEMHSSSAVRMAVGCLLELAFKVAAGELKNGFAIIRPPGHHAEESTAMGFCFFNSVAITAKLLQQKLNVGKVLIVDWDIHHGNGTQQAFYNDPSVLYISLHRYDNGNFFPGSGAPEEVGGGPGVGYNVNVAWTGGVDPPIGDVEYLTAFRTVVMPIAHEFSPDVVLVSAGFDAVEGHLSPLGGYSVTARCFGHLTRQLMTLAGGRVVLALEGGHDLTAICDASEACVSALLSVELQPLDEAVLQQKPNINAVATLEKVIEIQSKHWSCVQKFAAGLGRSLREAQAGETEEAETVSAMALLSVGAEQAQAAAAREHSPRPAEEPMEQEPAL
Sequence of Human HDAC3/NcoR2 (O15379 whole entry): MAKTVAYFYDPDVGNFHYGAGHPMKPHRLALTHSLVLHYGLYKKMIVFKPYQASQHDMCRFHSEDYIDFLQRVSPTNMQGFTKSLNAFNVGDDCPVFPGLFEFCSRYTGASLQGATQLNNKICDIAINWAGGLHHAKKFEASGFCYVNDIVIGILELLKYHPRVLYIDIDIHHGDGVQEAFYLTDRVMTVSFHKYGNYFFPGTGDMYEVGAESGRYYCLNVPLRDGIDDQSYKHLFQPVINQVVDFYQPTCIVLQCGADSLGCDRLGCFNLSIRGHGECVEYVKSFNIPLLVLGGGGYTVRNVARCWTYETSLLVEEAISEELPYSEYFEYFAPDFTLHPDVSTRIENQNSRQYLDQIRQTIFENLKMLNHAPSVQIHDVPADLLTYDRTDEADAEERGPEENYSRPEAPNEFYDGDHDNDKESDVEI
Sequence of Human HDAC3/NcoR2 (Q9Y618 395-489 partner): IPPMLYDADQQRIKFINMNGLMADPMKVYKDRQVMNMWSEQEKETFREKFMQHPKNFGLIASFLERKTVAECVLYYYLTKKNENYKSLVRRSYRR
Sequence of Human HDAC1 (Q13547 whole entry): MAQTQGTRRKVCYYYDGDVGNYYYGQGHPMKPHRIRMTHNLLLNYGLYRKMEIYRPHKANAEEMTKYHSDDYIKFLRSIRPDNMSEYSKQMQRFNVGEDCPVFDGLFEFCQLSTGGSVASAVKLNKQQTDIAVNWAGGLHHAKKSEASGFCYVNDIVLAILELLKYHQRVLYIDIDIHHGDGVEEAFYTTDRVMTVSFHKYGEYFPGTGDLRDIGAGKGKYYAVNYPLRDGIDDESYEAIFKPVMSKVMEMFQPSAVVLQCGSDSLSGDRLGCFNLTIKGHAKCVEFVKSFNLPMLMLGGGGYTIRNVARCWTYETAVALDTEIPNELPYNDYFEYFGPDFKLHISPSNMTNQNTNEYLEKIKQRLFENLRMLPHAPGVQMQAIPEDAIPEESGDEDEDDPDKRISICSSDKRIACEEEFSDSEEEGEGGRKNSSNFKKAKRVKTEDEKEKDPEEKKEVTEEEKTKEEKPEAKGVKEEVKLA

## N.N.[Cl][Pt][Cl] [Cisplatin, reference compound]
MCF-7
  IC50: 7.75 µM
MDA-MB-231
  IC50: 99.8 µM
SK-BR-3
  IC50: 1.74 µM
DU145
  IC50: 4.01 µM
LNCaP
  IC50: 8.92 µM
PC-3
  IC50: 11.5 µM
DLD-1
  IC50: 18.3 µM
HT-29
  IC50: 14.9 µM
LoVo
  IC50: 4.65 µM
SW480
  IC50: 10.8 µM
SW620
  IC50: 84.3 µM
A549
  IC50: 28.4 µM
Calu-6
  IC50: 1.61 µM
NCI-H226
  IC50: 9.5 µM
NCI-H460
  IC50: 6.93 µM
SK-MES-1
  IC50: 5.12 µM
U87MG
  IC50: 7.61 µM
Bx-PC-3
  IC50: 6.12 µM
PANC-1
  IC50: 24.8 µM
786-O
  IC50: 4.32 µM
Hep3B
  IC50: 3.96 µM
A375
  IC50: 6.55 µM
SK-MEL-5
  IC50: 2.87 µM
CNE2
  IC50: 11.8 µM
MCG803
  IC50: 11.4 µM
NCI-N87
  IC50: 8.24 µM
BGC823
  IC50: 1.29 µM
SK-OV-3
  IC50: 4.42 µM
OVCAR3
  IC50: 11.7 µM
K562
  IC50: 13.2 µM
KB
  IC50: 3.97 µM
RPMI-8226
  IC50: 1.06 µM

## Nc1ccccc1NC(=O)c1ccc(CNC(=O)c2[nH]c(-c3ccc(O)cc3)cc2-c2ccoc2)cc1 [Example 37, N-(4-{[(2-aminophenyl)amino)carbonyl]benzyl}-3-(3-furyl)-5-(4-hydroxyphenyl)-1H-pyrrole-2-carboxamide]
Human HDAC1
  IC50: 332 nM
Human HDAC2
  IC50: 1840 nM
Human HDAC3/NcoR2
  IC50: 5830 nM
Human HDAC4
  IC50: > 5000 nM
Human HDAC5
  IC50: 8640 nM
Human HDAC6
  IC50: 2890 nM
Human HDAC7
  IC50: > 5000 nM
Human HDAC8
  IC50: > 5000 nM
Human HDAC9
  IC50: > 5000 nM
Human HDAC10
  IC50: 8550 nM
Human HDAC11
  IC50: 5660 nM
[1]
  IC50: 1080 nM
